From PubChem BioAssay (NCI)
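Briefly, cells in 96-well plates were exposed to five compound concentrations for 48 h, and endpoints were estimated by linear interpolation. GI50 marks 50% less growth. TGI denotes the concentration required for complete inhibition of growth.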

What was measured:
Assay in all cases: inhibition of tumour cell growth, NCI panel, 48 h
ACHN renal = tested on: ACHN renal
MALME-3M melanoma = tested on: MALME-3M melanoma
COLO 205 colon = tested on: COLO 205 colon
UACC-62 melanoma = tested on: UACC-62 melanoma
RPMI-8226 leukemia = tested on: RPMI-8226 leukemia
RXF 393 renal = tested on: RXF 393 renal
LOX IMVI melanoma = tested on: LOX IMVI melanoma
SNB-19 CNS = tested on: SNB-19 CNS
PC-3 prostate = tested on: PC-3 prostate
A498 renal = tested on: A498 renal
TK-10 renal = tested on: TK-10 renal
HL-60(TB) leukemia = tested on: HL-60(TB) leukemia
SK-OV-3 ovarian = tested on: SK-OV-3 ovarian
CAKI-1 renal = tested on: CAKI-1 renal
HCT-15 colon = tested on: HCT-15 colon
HCT-116 colon = tested on: HCT-116 colon
NCI/ADR-RES ovarian = tested on: NCI/ADR-RES ovarian
SN12C renal = tested on: SN12C renal
EKVX NSCLC = tested on: EKVX NSCLC
SNB-75 CNS = tested on: SNB-75 CNS
786-0 renal = tested on: 786-0 renal
A549 NSCLC = tested on: A549 NSCLC
MCF7 breast = tested on: MCF7 breast
SF-539 CNS = tested on: SF-539 CNS
HOP-92 NSCLC = tested on: HOP-92 NSCLC
KM12 colon = tested on: KM12 colon
U251 CNS = tested on: U251 CNS
IGROV1 ovarian = tested on: IGROV1 ovarian
OVCAR-8 ovarian = tested on: OVCAR-8 ovarian
MDA-MB-435 = tested on: MDA-MB-435
OVCAR-5 ovarian = tested on: OVCAR-5 ovarian
SK-MEL-28 melanoma = tested on: SK-MEL-28 melanoma
OVCAR-4 ovarian = tested on: OVCAR-4 ovarian
HOP-62 NSCLC = tested on: HOP-62 NSCLC
MOLT-4 leukemia = tested on: MOLT-4 leukemia
HCC-2998 colon = tested on: HCC-2998 colon
SR leukemia = tested on: SR leukemia
SK-MEL-2 melanoma = tested on: SK-MEL-2 melanoma
UACC-257 melanoma = tested on: UACC-257 melanoma
T-47D breast = tested on: T-47D breast
NCI-H23 lung = tested on: NCI-H23 lung
DU-145 prostate = tested on: DU-145 prostate
K-562 leukemia = tested on: K-562 leukemia
HS 578T breast = tested on: HS 578T breast
M14 melanoma = tested on: M14 melanoma
CCRF-CEM leukemia = tested on: CCRF-CEM leukemia
NCI-H460 lung = tested on: NCI-H460 lung
BT-549 breast = tested on: BT-549 breast
SF-268 CNS = tested on: SF-268 CNS
UO-31 renal = tested on: UO-31 renal
SK-MEL-5 melanoma = tested on: SK-MEL-5 melanoma
MDA-MB-231 breast = tested on: MDA-MB-231 breast
SF-295 CNS = tested on: SF-295 CNS
SW-620 colon = tested on: SW-620 colon
OVCAR-3 ovarian = tested on: OVCAR-3 ovarian
NCI-H226 lung = tested on: NCI-H226 lung
HT29 colon = tested on: HT29 colon

In the case of `O=C(Nc1ccccc1)Nc1nc2ccc([N+](=O)[O-])cc2s1`, the GI50 (ACHN renal) was 2040 nM, the TGI (ACHN renal) was 10200 nM and the GI50 (MALME-3M melanoma) was 751 nM. For the same compound, the TGI (MALME-3M melanoma) was 7710 nM, the GI50 (COLO 205 colon) was 2050 nM and the TGI (COLO 205 colon) was 4380 nM. It also gave a GI50 (UACC-62 melanoma) of 860 nM, a TGI (UACC-62 melanoma) of 8130 nM and a GI50 (RPMI-8226 leukemia) of 690 nM. For the same compound, the TGI (RPMI-8226 leukemia) was 3470 nM, the GI50 (RXF 393 renal) was 548 nM and the TGI (RXF 393 renal) was 3020 nM. For the same compound, the GI50 (LOX IMVI melanoma) was 1220 nM, the TGI (LOX IMVI melanoma) was 3680 nM and the GI50 (SNB-19 CNS) was 1740 nM. For the same compound, the TGI (SNB-19 CNS) was 12900 nM, the GI50 (PC-3 prostate) was 1690 nM and the TGI (PC-3 prostate) was 9890 nM. The GI50 (A498 renal) was 254 nM, the TGI (A498 renal) was 1710 nM and the GI50 (TK-10 renal) was 2830 nM. It also gave a TGI (TK-10 renal) of 10700 nM, a GI50 (HL-60(TB) leukemia) of 1460 nM and a TGI (HL-60(TB) leukemia) of 3570 nM. The GI50 (SK-OV-3 ovarian) was 2330 nM, the TGI (SK-OV-3 ovarian) was 9580 nM and the GI50 (CAKI-1 renal) was 1620 nM. For the same compound, the TGI (CAKI-1 renal) was 7910 nM, the GI50 (HCT-15 colon) was 1650 nM and the TGI (HCT-15 colon) was 10500 nM. For the same compound, the GI50 (HCT-116 colon) was 2220 nM, the TGI (HCT-116 colon) was 10100 nM and the GI50 (NCI/ADR-RES ovarian) was 1790 nM. For the same compound, the TGI (NCI/ADR-RES ovarian) was 8310 nM, the GI50 (SN12C renal) was 1580 nM and the TGI (SN12C renal) was 6790 nM. The GI50 (EKVX NSCLC) was 1950 nM, the TGI (EKVX NSCLC) was 11900 nM and the GI50 (SNB-75 CNS) was 1870 nM. For the same compound, the TGI (SNB-75 CNS) was 5740 nM, the GI50 (786-0 renal) was 2410 nM and the TGI (786-0 renal) was 9940 nM. For the same compound, the GI50 (A549 NSCLC) was 2530 nM, the TGI (A549 NSCLC) was 14400 nM and the GI50 (MCF7 breast) was 1420 nM. The TGI (MCF7 breast) was 10800 nM, the GI50 (SF-539 CNS) was 2120 nM and the TGI (SF-539 CNS) was 10400 nM. For the same compound, the GI50 (HOP-92 NSCLC) was 324 nM, the TGI (HOP-92 NSCLC) was 2610 nM and the GI50 (KM12 colon) was 1770 nM. For the same compound, the TGI (KM12 colon) was 10600 nM, the GI50 (U251 CNS) was 1970 nM and the TGI (U251 CNS) was 12900 nM. The GI50 (IGROV1 ovarian) was 2490 nM, the TGI (IGROV1 ovarian) was 14900 nM and the GI50 (OVCAR-8 ovarian) was 2800 nM. For the same compound, the TGI (OVCAR-8 ovarian) was 14500 nM, the GI50 (MDA-MB-435) was 2160 nM and the TGI (MDA-MB-435) was 9740 nM. It also gave a GI50 (OVCAR-5 ovarian) of 4330 nM, a TGI (OVCAR-5 ovarian) of 17400 nM and a GI50 (SK-MEL-28 melanoma) of 2450 nM. The TGI (SK-MEL-28 melanoma) was 12100 nM, the GI50 (OVCAR-4 ovarian) was 1310 nM and the TGI (OVCAR-4 ovarian) was 12400 nM. It also gave a GI50 (HOP-62 NSCLC) of 2930 nM, a TGI (HOP-62 NSCLC) of 11500 nM and a GI50 (MOLT-4 leukemia) of 1960 nM. It also gave a TGI (MOLT-4 leukemia) of 7140 nM, a GI50 (HCC-2998 colon) of 1380 nM and a TGI (HCC-2998 colon) of 9090 nM. It also gave a GI50 (SR leukemia) of 746 nM, a TGI (SR leukemia) of 4170 nM and a GI50 (SK-MEL-2 melanoma) of 1690 nM. It also gave a TGI (SK-MEL-2 melanoma) of 5150 nM, a GI50 (UACC-257 melanoma) of 1490 nM and a TGI (UACC-257 melanoma) of 7700 nM. For the same compound, the GI50 (T-47D breast) was 533 nM, the TGI (T-47D breast) was 9770 nM and the GI50 (NCI-H23 lung) was 649 nM. The TGI (NCI-H23 lung) was 3570 nM, the GI50 (DU-145 prostate) was 3330 nM and the TGI (DU-145 prostate) was 16700 nM. The GI50 (K-562 leukemia) was 1470 nM, the TGI (K-562 leukemia) was 10800 nM and the GI50 (HS 578T breast) was 2720 nM. The TGI (HS 578T breast) was 12400 nM, the GI50 (M14 melanoma) was 2640 nM and the TGI (M14 melanoma) was 8480 nM. For the same compound, the GI50 (CCRF-CEM leukemia) was 1290 nM, the TGI (CCRF-CEM leukemia) was 13100 nM and the GI50 (NCI-H460 lung) was 2060 nM. For the same compound, the TGI (NCI-H460 lung) was 10500 nM, the GI50 (BT-549 breast) was 2020 nM and the TGI (BT-549 breast) was 6500 nM. For the same compound, the GI50 (SF-268 CNS) was 2650 nM, the TGI (SF-268 CNS) was 13300 nM and the GI50 (UO-31 renal) was 1560 nM. For the same compound, the TGI (UO-31 renal) was 11500 nM, the GI50 (SK-MEL-5 melanoma) was 471 nM and the TGI (SK-MEL-5 melanoma) was 1750 nM. For the same compound, the GI50 (MDA-MB-231 breast) was 1820 nM, the TGI (MDA-MB-231 breast) was 4560 nM and the GI50 (SF-295 CNS) was 1230 nM. The TGI (SF-295 CNS) was 3110 nM, the GI50 (SW-620 colon) was 2970 nM and the TGI (SW-620 colon) was 12700 nM. The GI50 (OVCAR-3 ovarian) was 1910 nM, the TGI (OVCAR-3 ovarian) was 11600 nM and the GI50 (NCI-H226 lung) was 1370 nM. It also gave a TGI (NCI-H226 lung) of 4300 nM, a GI50 (HT29 colon) of 3460 nM and a TGI (HT29 colon) of 12100 nM.
